From US20240199562A1, “UREA DERIVATIVES FOR TREATING UVEAL MELANOMA” (CENTRE NATIONAL DE LA RECHERCHE SCIENTIFIQUE, priority 2021, published 2024)
Like-named read-outs stand apart in the source and are kept apart here.

How the values were obtained:
[1] = tested on: MM66 cells; assay: Cell viability (XTT) on uveal melanoma cells MM66; format: cell-based; settings: for metabolism of UM cells (XTT): MM66 cells, increasing doses, FIG. 2A; for viability of cells: MM66 cells from liver metastases, in words
Method: (§1) FIG. 1: In vitro efficacy of MCK140 and MCK151 on uveal melanoma cells. Cells were treated for 48 hours with increasing doses of MCK140 or MCK151 and the cell viability was then evaluated by XTT.
(§2) FIG. 2A: In vitro efficacy of MCK151, Ladarixin, and AZD-5069 in uveal melanoma cells. MP41 and MM66 cells were treated for 48 hours with increasing doses of MCK151 or Ladarixin or AZD-5069 and the cell metabolism was then evaluated by XTT.
(§3) Cell culture: Uveal melanoma cells were derived from the primary tumor (eye tumor, MP38 and MP46) and one is from liver metastasis (MM66) were a kind gift from Dr. Roman Roman (Curie Institute). UM cells were cultured in RPMI medium supplemented with 20% FBS.
(§4) Cell viability (XTT): Cells (5×10^3 cells/100 μl) were incubated in a 96-well plate with different effectors for the times indicated in the figure legends. 50 μl of sodium 3′-[1-phenylaminocarbonyl)-3,4-tetrazolium]-bis(4-methoxy-6-nitro) benzene sulfonic acid hydrate (XTT) reagent was added to each well. The assay is based on the cleavage of the yellow tetrazolium salt XTT to form an orange formazan dye by metabolically active cells. Absorbance of the formazan product, reflecting cell viability, was measured at 490 nm. Each assay was performed in quadruplicate.

[2] = tested on: MP41 cells; assay: Cell viability (XTT) on uveal melanoma cells MP41; format: cell-based; settings: for metabolism of UM cells (XTT): MP41 cells, increasing doses, FIG. 2A; for IC50: MP41 cells (primary tumor); for viability of cells: MP41 cells from the primary tumor, in words
Method: as §1, §2, §3, §4

[3] = tested on: MP41 cells; assay: ROS assay (CellROX Deep Red, cytometry); format: cell-based; settings: MCK151 1, 2.5, 5 μM, Ladarixin 10 μM, FIG. 2B
Method: FIG. 2B: Inhibition of ROS production by MCK151 and Ladarixin in uveal melanoma cells. MP41 cells were treated for 48 hours with increasing doses of MCK151 (1 μM, 2.5 μM, and 5 μM) or Ladarixin (10 μM) and ROS quantity was evaluated by cytometry.
ROS assay: Deep Red Reagent was used to assess the level of intracellular ROS. The CellROX/Deep Red reagent (which is initially non-fluorescent) freely enters the cells, where it is cleaved by endogenous esterases. After oxidization by ROS, the reagent becomes highly fluorescent with an absorption/emission maximal of 644/665 nm. Cells were treated 24h and incubated at 37° C. with CellROX Deep Red reagent (0.01 umol/L) for 2 h. The cells were then washed with PBS and analyzed by cytometry.

[4] = tested on: MP38 cells; assay: Cell viability (XTT) on uveal melanoma cells MP38; format: cell-based; settings: for IC50: MP38 cells (primary tumor), 48 hours, XTT; for viability of cells: MP38 cells from the primary tumor, in words
Method: as §1, §3, §4

[5] = tested on: MM66 cells; assay: Migration assay (Boyden chamber); format: cell-based
Method: FIG. 3A: Evaluation of the migration ability of uveal cells treated with MCK151. MP41 and MM66 cells migration was analysed using Boyden chamber assays in the presence/absence of MCK151 (0.1 to 2.5 μM). Representative images were shown. ** p<0.01, *** p<0.001
Migration assays: 50 000 cells were cultured in RPMI 0% FCS and seeded in Boyden chambers. After 24 h, Boyden chambers were washed with PBS. Migrative cells were fixed with paraformaldehyde 3% and colored with crystal violet.

[6] = tested on: MP41 cells; assay: Tumor xenograft, gavage; format: in vivo, mice; settings: orally
Method: FIG. 5: In vivo efficacy of MCK151 on mice treated by gavage. Five million MP41 cells were injected subcutaneously into the flank of 5-week-old NOD-SCID female mice. When the tumor reached 100 mm^3, mice were treated every day for 27 days, by gavage with placebo (10% ethanol vehicle) or MCK151 (33 or 100 mg/kg in 10% ethanol vehicle). • A: The tumor volume was evaluated using a calliper. The results are presented as the means±sd. ** p<0.01, *** p<0.001 • B: Tumor weight at the end of the experiment. ** p<0.01, *** p<0.001 ns: non significant • C: Animal weight at the end of the experiment. ns: non significant
(§5) Tumor xenograft experiments: These studies were carried out in strict accordance with the recommendations in the Guide for the Care and Use of Laboratory Animals. Our experiments were approved by the “Comité National Institutionnel d'Ethique pour l'Animal de Laboratoire”. Five million MP41 cells were injected subcutaneously into the flank of 5-week-old Nod-SDIC female mice (Janvier). When the tumor reached 100 mm3, mice were treated. The tumor volume was determined with a caliper (v=L*l2*0.5).
An oral formulation (10% ethanol in ultrapure water) was developed and tested in the same in vivo model (FIG. 5). […] However, a 100 mg/kg dose reduced tumor growth (50% reduction, FIG. 5A).

[7] = tested on: MP41 cells; assay: Tumor xenograft, intraperitoneal injection; format: in vivo, mice
Method: FIG. 4: In vivo efficacy of MCK151 on mice treated by intraperitoneal injection. Five million MP41 cells were injected subcutaneously into the flank of 5-week-old NOD-SCID female mice. When the tumor reached 100 mm^3, mice were treated every day for 20 days, by intraperitoneal injection with placebo (dextrose water vehicle) or MCK151 (200 or 400 μg in dextrose water vehicle) • A: The tumor volume was evaluated using a calliper. The results are presented as the means±sd. ** p<0.01 • B: Tumor weight at the end of the experiment. ** p<0.01, *** p<0.001 • C: Animal weight at the end of the experiment. ns: non significant
as §5

[8] = tested on: MMP9 mRNA; assay: MMP9 mRNA levels by RT-qPCR; format: cell-based; settings: MP41 and MM66 cells, 24 hours, 2.5 μM, FIG. 3B
Method: FIG. 3B: MMP9 mRNA levels (AU) in uveal melanoma cells. MP41 and MM66 cells were treated for 24 hours with MCK151 (2.5 μM) and MMP9 mRNA levels were evaluated by qPCR. *** p<0.001.
Analyses by RT-qPCR: RNA from cells were purified with the RNeasy Mini Kit (Quiagen). The “QuantiTect Reverse Transcription Kit” (Qiagen) was used for cDNA obtention. The PCR program was executed on “Professional Basic Thermocycler” (Biometra). SYBR master mix plus (Eurogentec) was used for qPCR. The mRNA levels were normalized to 36B4 mRNA.

[9] = tested on: SLUG; assay: SLUG protein amount by immunoblotting; format: cell-based; settings: MP41 and MM66 cells, 2.5 μM, 0-24 h, FIG. 3C
Method: FIG. 3C: Slug proteins amount in uveal melanoma cells treated by MCK151. MP41 and MM66 cells were treated with MCK151 (2.5 μM) for different time (0, 2, 4, 6, 8, and 24 h). SLUG protein amounts were evaluated by immunoblotting. HSP90 is used as a loading control.
Immunoblotting: Cells were lysed in SDS 7.5%; glycerol 30%; Tris 0.3 M pH 6.8 lysis buffer. 30 μg of proteins were separated on 10% SDS—polyacrylamide gels and transferred on PVDF membranes. The following primary antibodies were used: SLUG (Cell signaling, ref:9585) and HSP90 (Cell signaling, ref:4877).

[10] = MM66 cells (liver metastases), 48 h, Table 3, read-out: IC50 (μM) at 48 h MM66
[11] = 48 h, Table 3, read-out: IC50 (μM) at 48 h MP41
[12] = MM66 cells (liver metastasis), 48 hours, XTT, Table 2, read-out: IC50 (μM) UM MM66
[13] = 48 hours, XTT, Table 2, read-out: IC50 (μM) UM MP41

With `C[C@@H](Oc1cc(NS(=O)(=O)N2CCC2)nc(SCc2cccc(F)c2F)n1)[C@@H](O)CO` [AZD-5069, reference compound] the “metabolism of UM cells (XTT)” value ([1]; 48 hours) was “no effect” and the “metabolism of UM cells (XTT)” value ([2]; 48 hours) was “no effect”.

With `C[C@@H](C(=O)NS(C)(=O)=O)c1ccc(OS(=O)(=O)C(F)(F)F)cc1` [Ladarixin, reference compound] the “ROS production by UM cells” value [3] was “no effect”, the “metabolism of UM cells (XTT)” value ([1]; 48 hours) was “no effect” and the “metabolism of UM cells (XTT)” value ([2]; 48 hours) was “no effect”.

For `O=C(Nc1ccccc1)Nc1nc2ccccc2[nH]1` [MCK113, 1-(1H-benzo[d]imidazol-2-yl)-3-phenylurea], the IC50 [1, 10] was 40 µM and the IC50 [2, 11] was 32 µM.

`CCOc1ccc2nc(NC(=O)Nc3ccccc3C)sc2c1` [MCK133, 1-(6-ethoxybenzo[d]thiazol-2-yl)-3-(o-tolyl)urea] showed an IC50 [1, 10] of 20 µM and an IC50 [2, 11] of 15 µM.

Work on `CCOc1ccc2nc(NC(=O)Nc3ccc(OC)cc3)sc2c1` [MCK135, 1-(6-ethoxybenzo[d]thiazol-2-yl)-3-(4-methoxyphenyl)urea] yielded an IC50 [1, 10] of 50 µM and an IC50 [2, 11] of 50 µM.

With `O=C(Nc1nc2ccc([N+](=O)[O-])cc2s1)Nc1ccccc1Cl` [MCK139, 1-(2-chlorophenyl)-3-(6-nitrobenzo[d]thiazol-2-yl)urea] the IC50 [1, 10] was 15 µM and the IC50 [2, 11] was 20 µM.

With `O=C(Nc1cccc(Cl)c1)Nc1nc2ccc([N+](=O)[O-])cc2s1` [MCK140, 1-(3-chlorophenyl)-3-(6-nitrobenzo[d]thiazol-2-yl)urea] the IC50 [1, 10] was 1.25 µM, the IC50 [1, 12] was 1.25 µM and the viability of cells [1] was “decreased the viability”. The IC50 [2, 11] was 1 µM, the IC50 [2, 13] was 1 µM and the viability of cells [2] was “decreased the viability”. The IC50 [4] was 1 µM and the viability of cells [4] was “decreased the viability”.

In the case of `Nc1ccc2nc(NC(=O)Nc3cccc(Cl)c3)sc2c1` [MCK148, 1-(6-aminobenzo[d]thiazol-2-yl)-3-(3-chlorophenyl)urea], the IC50 [1, 10] is reported as 50 µM and the IC50 [2, 11] is reported as 50 µM.

`CC(=O)Nc1ccc2nc(NC(=O)Nc3cccc(Cl)c3)sc2c1` [MCK149, N-(2-(3-(3-chlorophenyl)ureido)benzo[d]thiazol-6-yl)acetamide] gave an IC50 [1, 10] of 25 µM and an IC50 [2, 11] of 40 µM.

For `O=C(Nc1cc(Cl)cc(Cl)c1)Nc1nc2ccc([N+](=O)[O-])cc2s1` [MCK151, 1-(3,5-dichlorophenyl)-3-(6-nitrobenzo[d]thiazol-2-yl)urea], the “concentration of optimal effect on migration” value ([5]; Boyden chamber) was 0.5 µM, the migration ability ([5]; MCK151 0.1 to 2.5 μM, FIG. 3A) was “inhibits this migration ability” and the tumor growth ([6]; 33 mg/kg per day, FIG. 5) was “had a trend to decrease tumor growth”. The “reduction of tumor growth” value ([6]; 100 mg/kg dose, FIG. 5A) was 50%, the “reduction of tumor weight” value ([6]; 100 mg/kg dose, FIG. 5B) was 50% and the mice weight ([6]; 33 and 100 mg/kg/day, FIG. 5C) was “did not modify mice weight”. For the same molecule, the “ROS production by UM cells” value [3] was “inhibits ROS production”, the “inhibition of tumor growth” value ([7]; NOD-SCID mice, 400 μg dose, FIG. 4A) was 73% and the “growth of experimental tumors” value ([7]; NOD-SCID mice, 200 or 400 μg every day for 20 days, FIG. 4A) was “inhibited”. For the same molecule, the “tumors at the end of the experiment” value ([7]; NOD-SCID mice, FIG. 4B (tumor weight)) was “smaller”, the weight of mice ([7]; whatever the concentration, FIG. 4C) was “did not modify the weight of mice” and the “MMP9 mRNA levels” value [8] was “decreases MMP9 mRNA levels”. The IC50 [1, 10] was 1.5 µM, the IC50 [1, 12] was 1.5 µM and the viability of cells [1] was “decreased the viability”. The “metabolism of UM cells (XTT)” value ([1]; 48 hours) was “strongly inhibits the metabolism of UM cells”, the IC50 [2, 11] was 1.25 µM and the IC50 [2, 13] was 1.25 µM. The viability of cells [2] was “decreased the viability”, the “metabolism of UM cells (XTT)” value ([2]; 48 hours) was “strongly inhibits the metabolism of UM cells” and the IC50 [4] was 1 µM. The viability of cells [4] was “decreased the viability” and the “expression of SLUG” value [9] was “decreases”.

For `Cc1cccc(NC(=O)Nc2nc3ccc([N+](=O)[O-])cc3o2)c1` [MCK153, 1-(6-nitrobenzo[d]oxazol-2-yl)-3-(m-tolyl)urea], the IC50 [1, 10] was 12 µM and the IC50 [2, 11] was 30 µM.

Work on `O=C(Nc1ccccc1)Nc1nc2ccc([N+](=O)[O-])cc2[nH]1` [MCK157, 1-(6-nitro-1H-benzo[d]imidazol-2-yl)-3-phenylurea] yielded an IC50 [1, 10] of 10 µM and an IC50 [2, 11] of 8 µM.

Molecule `O=C(Nc1cccc(Cl)c1)Nc1nc2ccc(Br)cc2s1` [MCK159, 1-(6-bromobenzo[d]thiazol-2-yl)-3-(3-chlorophenyl)urea] has an IC50 [1, 10] of 10 µM and an IC50 [2, 11] of 20 µM.

`O=C(Nc1cccc(Cl)c1)Nc1nc2ccc(-c3cccc4ccccc34)cc2s1` [MCK164, 1-(3-chlorophenyl)-3-(6-(naphthalen-1-yl)benzo[d]thiazol-2-yl)urea] showed an IC50 [1, 10] of 5 µM and an IC50 [2, 11] of 10 µM.

For `O=C(Nc1cccc(Cl)c1)Nc1nc2ccc(-c3ccccn3)cc2s1` [MCK172, 1-(3-chlorophenyl)-3-(6-(pyridin-2-yl)benzo[d]thiazol-2-yl)urea], the IC50 [1, 10] was 25 µM and the IC50 [2, 11] was 30 µM.
